# From US8372865B2, “Dihydropyridone amides as P2X7 modulators” (Roche Palo Alto LLC, priority 2008, dated 2013)
# Molecular target: T1, P2X7 receptor (UniProt Q99572)
# T1 sequence (Q99572 1-595): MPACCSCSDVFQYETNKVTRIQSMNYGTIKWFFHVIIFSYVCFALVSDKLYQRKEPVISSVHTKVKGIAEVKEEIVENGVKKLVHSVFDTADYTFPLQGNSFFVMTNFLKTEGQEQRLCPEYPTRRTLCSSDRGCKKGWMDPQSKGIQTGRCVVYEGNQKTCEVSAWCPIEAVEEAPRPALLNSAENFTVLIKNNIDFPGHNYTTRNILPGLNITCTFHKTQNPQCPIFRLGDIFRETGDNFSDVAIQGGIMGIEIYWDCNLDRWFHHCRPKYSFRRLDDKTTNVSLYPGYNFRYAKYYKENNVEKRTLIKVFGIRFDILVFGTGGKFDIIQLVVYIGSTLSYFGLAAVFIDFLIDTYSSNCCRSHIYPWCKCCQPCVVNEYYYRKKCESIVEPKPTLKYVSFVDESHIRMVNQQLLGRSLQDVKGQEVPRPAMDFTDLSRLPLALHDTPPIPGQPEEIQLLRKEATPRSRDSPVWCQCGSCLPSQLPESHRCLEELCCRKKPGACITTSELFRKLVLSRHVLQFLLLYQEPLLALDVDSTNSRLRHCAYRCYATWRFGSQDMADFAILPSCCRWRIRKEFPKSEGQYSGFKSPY
# Test: pKi of Table 1 (assay not stated)
# Type: cell-based
# Description: Intracellular Calcium Flux (FLIPR) Assay
# Stock solutions of compounds were prepared from powders as a 10 mM DMSO stock solution. These solutions were stored at RT during the two week period of these experiments to prevent freeze-thaw of the DMSO stocks. The DMSO stocks were added to the appropriate assay buffer at a concentration of 10 μM, and then diluted serially to the final concentrations that were tested. […] The aqueous solutions of compounds as well as ATP (Sigma A7699) and BzATP (Sigma B6396) were prepared fresh for each day of experiment.
# 1321N1 cells stably expressing the full length human P2X7 gene (1321N1-hP2X7) and HEK293 cells stably expressing the full length rat P2X7 gene (HEK293-rP2X7) were obtained from the Roche Cell Culture Facility. 1321N1-hP2X7 cells were grown in Dulbecco's Modified Eagle's Medium (DMEM) high glucose supplemented with 10% FBS and 250 μg/mL G418. HEK293-rP2X7 cells were grown in DMEM/F-12 supplemented with 10% FBS, 1 mM CaCl2, 2 mM MgCl2, 2 mM L-Glutamine and 500 μg/ml G418. Cells were split such that they never became>70% confluent.
# On the day prior to the experiment, 1321N1-hP2X7 or HEK293-rP2X7 cells were released into suspension with calcium-free PBS+Versene and washed by centrifugation with calcium-free PBS to remove the Versene. Cells were resuspended in growth medium at a density of 2.5×10^5 cells/mL and seeded into black walled, clear bottom 96 well plates (50,000 cells/well) approximately 18 hr prior to intracellular calcium flux experiments.
# On the day of the experiment, plates were washed with FLIPR buffer (calcium- and magnesium-free Hank's Balanced Salt Solution (HBSS) supplemented with 10 mM Hepes, 2.5 mM probenecid and 2 mM calcium chloride) using a BIO-TEK 96 channel plate washer and incubated with […] fluo-3 dye at 37° C. for one hr. The dye was then removed by plate washing and the cells were allowed to equilibrate for 20 min at room temperature with antagonist or vehicle (FLIPR buffer). Agonist (100 μM BzATP final concentration for hP2X7; 5 μM BzATP final concentration or rP2X7) was added online with the FLIPR and fluorescence measurements made at 1 sec intervals for 60 sec followed by 3 sec intervals for a further 4 min (5 min total). A final addition of 5 μM ionomycin was made and the maximal BzATP-evoked fluorescence normalized to the maximal ionomycin-evoked fluorescence.
row,pKi,Structure (SMILES)
1,6.88,"CCc1cc2c(cc1NC(=O)C1=CNC(=O)C[C@H]1c1ccc(F)cc1)N(C)C(=O)CO2 [Compound 25, (S)-4-(4-Fluoro-phenyl)-6-oxo-1,4,5,6-tetrahydro-pyridine-3-carboxylic acid (7-ethyl-4-methyl-3-oxo-3,4-dihydro-2H-benzo[1,4]oxazin-6-yl)-amide]"
2,7.135,"O=C1C[C@@H](c2ccc(F)cc2)C(C(=O)Nc2ccc3ncccc3c2Br)=CN1 [Compound 6, (S)-4-(4-Fluoro-phenyl)-6-oxo-1,4,5,6-tetrahydro-pyridine-3-carboxylic acid (5-bromo-quinolin-6-yl)-amide]"
3,6.045,"Cc1ccc2c(C)nccc2c1NC(=O)C1=CN(C)C(=O)C[C@H]1c1ccc(F)cc1 [Compound 53, (S)-4-(4-Fluoro-phenyl)-1-methyl-6-oxo-1,4,5,6-tetrahydro-pyridine-3-carboxylic acid (1,6-dimethyl-isoquinolin-5-yl)-amide]"
4,6.805,"CCc1cc2c(cc1NC(=O)C1=CNC(=O)C[C@H]1c1ccc(F)cc1)N(C)C(=O)CC2 [Compound 31, (S)-4-(4-Fluoro-phenyl)-6-oxo-1,4,5,6-tetrahydro-pyridine-3-carboxylic acid (6-ethyl-1-methyl-2-oxo-1,2,3,4-tetrahydro-quinolin-7-yl)-amide]"
5,6.825,"Cc1cc2ncccc2cc1NC(=O)C1=CNC(=O)C[C@H]1c1cccc(F)c1 [Compound 20, (S)-4-(3-Fluoro-phenyl)-6-oxo-1,4,5,6-tetrahydro-pyridine-3-carboxylic acid (7-methyl-quinolin-6-yl)-amide]"
6,5.48,"Cc1cc2c(cc1NC(=O)C1=CNC(=O)C[C@H]1c1ccc(F)cc1)N(CCO)C(=O)CO2 [Compound 39, (S)-4-(4-Fluoro-phenyl)-6-oxo-1,4,5,6-tetrahydro-pyridine-3-carboxylic acid [4-(2-hydroxy-ethyl)-7-methyl-3-oxo-3,4-dihydro-2H-benzo[1,4]oxazin-6-yl]-amide]"
7,6.645,"Cc1c(NC(=O)C2=CNC(=O)C[C@H]2c2cccc(F)c2)ccc2ncccc12 [Compound 10, (S)-4-(3-Fluoro-phenyl)-6-oxo-1,4,5,6-tetrahydro-pyridine-3-carboxylic acid (5-methyl-quinolin-6-yl)-amide]"
8,5.29,"O=C1C[C@@H](c2ccc(F)cc2)C(C(=O)Nc2cccc3ccncc23)=CN1 [Compound 47, (S)-4-(4-Fluoro-phenyl)-6-oxo-1,4,5,6-tetrahydro-pyridine-3-carboxylic acid isoquinolin-8-ylamide]"
9,5.925,"O=C1C[C@@H](c2cccc(F)c2)C(C(=O)Nc2cc3c(cc2Br)OCC(=O)N3)=CN1 [Compound 21, (S)-4-(3-Fluoro-phenyl)-6-oxo-1,4,5,6-tetrahydro-pyridine-3-carboxylic acid (7-bromo-3-oxo-3,4-dihydro-2H-benzo[1,4]oxazin-6-yl)-amide]"
10,7.7,"CCc1cc2cnn(CCO)c2cc1NC(=O)C1=CNC(=O)C[C@H]1c1cccc(F)c1 [Compound 45, (S)-4-(3-Fluoro-phenyl)-6-oxo-1,4,5,6-tetrahydro-pyridine-3-carboxylic acid [5-ethyl-1-(2-hydroxy-ethyl)-1H-indazol-6-yl]-amide]"
11,5.345,"O=C1C[C@@H](c2ccc(F)cc2)C(C(=O)Nc2cccc3ncccc23)=CN1 [Compound 5, (S)-4-(4-Fluoro-phenyl)-6-oxo-1,4,5,6-tetrahydro-pyridine-3-carboxylic acid quinolin-5-ylamide]"
12,6.9,"CN1C(=O)CCc2cc(Br)c(NC(=O)C3=CNC(=O)C[C@H]3c3ccc(F)cc3)cc21 [Compound 13, (S)-4-(4-Fluoro-phenyl)-6-oxo-1,4,5,6-tetrahydro-pyridine-3-carboxylic acid (6-bromo-1-methyl-2-oxo-1,2,3,4-tetrahydro-quinolin-7-yl)-amide]"
13,7.635,"CCc1c(NC(=O)C2=CNC(=O)C[C@H]2c2cccc(F)c2)ccc2nc(C)ccc12 [Compound 46, (S)-4-(3-Fluoro-phenyl)-6-oxo-1,4,5,6-tetrahydro-pyridine-3-carboxylic acid (5-ethyl-2-methyl-quinolin-6-yl)-amide]"
14,5.14,"CC1=C(C(=O)Nc2ccc3[nH]ncc3c2)C(c2ccc(F)cc2)CC(=O)N1 (stereo not drawn) [Compound 32, 4-(4-Fluoro-phenyl)-2-methyl-6-oxo-1,4,5,6-tetrahydro-pyridine-3-carboxylic acid (1H-indazol-5-yl)-amide]"
15,7.505,"Cc1cc2c(cc1NC(=O)C1=CNC(=O)C[C@H]1c1ccc(F)cc1)CCC(=O)N2C [Compound 43, (S)-4-(4-Fluoro-phenyl)-6-oxo-1,4,5,6-tetrahydro-pyridine-3-carboxylic acid (1,7-dimethyl-2-oxo-1,2,3,4-tetrahydro-quinolin-6-yl)-amide]"
16,7.16,"Cc1cc2c(cc1NC(=O)C1=CNC(=O)C[C@H]1c1ccc(F)cc1)N(C)C(=O)CC2 [Compound 18, (S)-4-(4-Fluoro-phenyl)-6-oxo-1,4,5,6-tetrahydro-pyridine-3-carboxylic acid (1,6-dimethyl-2-oxo-1,2,3,4-tetrahydro-quinolin-7-yl)-amide]"
17,5.145,"O=C1C[C@@H](c2ccc(F)cc2)C(C(=O)Nc2cc3c(cc2Br)CCC(=O)N3)=CN1 [Compound 41, (S)-4-(4-Fluoro-phenyl)-6-oxo-1,4,5,6-tetrahydro-pyridine-3-carboxylic acid (6-bromo-2-oxo-1,2,3,4-tetrahydro-quinolin-7-yl)-amide]"
18,7.575,"CCc1cc2ccn(CCO)c2cc1NC(=O)C1=CNC(=O)C[C@H]1c1ccc(F)cc1 [Compound 16, (S)-4-(4-Fluoro-phenyl)-6-oxo-1,4,5,6-tetrahydro-pyridine-3-carboxylic acid [5-ethyl-1-(2-hydroxy-ethyl)-1H-indol-6-yl]-amide]"
19,7.69,"CCc1c(NC(=O)C2=CNC(=O)C[C@H]2c2ccc(F)cc2)ccc2ncccc12 [Compound 8, (S)-4-(4-Fluoro-phenyl)-6-oxo-1,4,5,6-tetrahydro-pyridine-3-carboxylic acid (5-ethyl-quinolin-6-yl)-amide]"
20,7.125,"CCc1cc2c(cc1NC(=O)C1=CNC(=O)C[C@H]1c1cccc(F)c1)N(C)C(=O)CO2 [Compound 26, (S)-4-(3-Fluoro-phenyl)-6-oxo-1,4,5,6-tetrahydro-pyridine-3-carboxylic acid (7-ethyl-4-methyl-3-oxo-3,4-dihydro-2H-benzo[1,4]oxazin-6-yl)-amide]"
21,5.24,"O=C1CC(c2cccc(F)c2)C(C(=O)Nc2ccc3cc[nH]c3c2)=CN1 (stereo not drawn) [Compound 2, 4-(3-Fluoro-phenyl)-6-oxo-1,4,5,6-tetrahydro-pyridine-3-carboxylic acid (1H-indol-6-yl)-amide]"
22,5.425,"Cc1cc2c(NC(=O)C3=CNC(=O)C[C@H]3c3ccc(F)cc3)cccc2nn1 [Compound 48, (S)-4-(4-Fluoro-phenyl)-6-oxo-1,4,5,6-tetrahydro-pyridine-3-carboxylic acid (3-methyl-cinnolin-5-yl)-amide]"
23,7.4375,"Cc1ccc2c(=O)n(C)ccc2c1NC(=O)C1=CNC(=O)C[C@H]1c1ccc(F)cc1 [Compound 51, (S)-4-(4-Fluoro-phenyl)-6-oxo-1,4,5,6-tetrahydro-pyridine-3-carboxylic acid (2,6-dimethyl-1-oxo-1,2-dihydro-isoquinolin-5-yl)-amide]"
24,7.74,"CCc1cc2cnn(C)c2cc1NC(=O)C1=CNC(=O)C[C@H]1c1ccc(F)cc1 [Compound 42, (S)-4-(4-Fluoro-phenyl)-6-oxo-1,4,5,6-tetrahydro-pyridine-3-carboxylic acid (5-ethyl-1-methyl-1H-indazol-6-yl)-amide]"
